Measurements published in ChEMBL document CHEMBL2086270, “Rational Design, Synthesis, and SAR of a Novel Thiazolopyrimidinone Series of Selective PI3K-beta Inhibitors” (ACS Med Chem Lett, 2012).
Active and inactive are the calls of the source. The rule behind the calls is not given here.

Assays:
[1] = molecular target: Phosphatidylinositol 4,5-bisphosphate 3-kinase catalytic subunit alpha isoform (Homo sapiens, UniProt P42336); assay: Inhibition of PI3K alpha by continuous TR-FRET assay
[2] = molecular target: T1, Phosphatidylinositol 4,5-bisphosphate 3-kinase catalytic subunit beta isoform (Homo sapiens, UniProt P42338); assay: Inhibition of PI3K beta by continuous TR-FRET assay
[3] = molecular target: T2, Phosphatidylinositol 4,5-bisphosphate 3-kinase catalytic subunit delta isoform (Homo sapiens, UniProt O00329); assay: Inhibition of PI3K delta by continuous TR-FRET assay
T2 sequence (O00329 whole entry): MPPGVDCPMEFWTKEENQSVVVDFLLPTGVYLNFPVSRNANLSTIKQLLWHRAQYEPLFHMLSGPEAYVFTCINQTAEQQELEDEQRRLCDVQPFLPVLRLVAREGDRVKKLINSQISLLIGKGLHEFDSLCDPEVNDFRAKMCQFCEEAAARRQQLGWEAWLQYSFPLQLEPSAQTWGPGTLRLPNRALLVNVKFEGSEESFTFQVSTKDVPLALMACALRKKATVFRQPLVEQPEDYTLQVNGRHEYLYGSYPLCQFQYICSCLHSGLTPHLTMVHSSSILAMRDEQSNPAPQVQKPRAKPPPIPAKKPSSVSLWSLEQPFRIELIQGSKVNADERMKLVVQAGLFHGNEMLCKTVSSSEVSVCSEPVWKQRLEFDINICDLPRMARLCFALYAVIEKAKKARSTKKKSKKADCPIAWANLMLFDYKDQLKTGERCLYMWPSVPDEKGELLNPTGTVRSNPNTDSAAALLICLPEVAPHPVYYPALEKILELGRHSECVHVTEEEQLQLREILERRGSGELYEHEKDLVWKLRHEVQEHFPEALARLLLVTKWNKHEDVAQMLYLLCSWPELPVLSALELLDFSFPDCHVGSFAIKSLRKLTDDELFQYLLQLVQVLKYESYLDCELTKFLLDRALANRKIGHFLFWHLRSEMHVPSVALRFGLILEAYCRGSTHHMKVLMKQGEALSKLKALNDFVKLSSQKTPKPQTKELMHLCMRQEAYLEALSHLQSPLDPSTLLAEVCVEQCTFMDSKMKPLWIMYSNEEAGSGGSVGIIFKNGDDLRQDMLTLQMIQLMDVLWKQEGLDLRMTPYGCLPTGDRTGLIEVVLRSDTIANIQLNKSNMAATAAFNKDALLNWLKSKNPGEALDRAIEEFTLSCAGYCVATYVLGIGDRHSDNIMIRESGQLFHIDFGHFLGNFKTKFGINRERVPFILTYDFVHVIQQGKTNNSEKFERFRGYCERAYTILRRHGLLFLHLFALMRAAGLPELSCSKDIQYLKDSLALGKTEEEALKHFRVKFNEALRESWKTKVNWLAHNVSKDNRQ

[4] = molecular target: Phosphatidylinositol 4,5-bisphosphate 3-kinase catalytic subunit gamma isoform (Homo sapiens, UniProt P48736); assay: Inhibition of PI3K gamma by continuous TR-FRET assay
[5] = molecular target: T1, Phosphatidylinositol 4,5-bisphosphate 3-kinase catalytic subunit beta isoform; assay: Inhibition of PI3K beta in human PTEN-deficient MDA-MB-468 cells assessed as inhibition of Akt Ser473 phosphorylation; assay type: cell-based
MDA-MB-468 = assay: Antiproliferative activity against PTEN-deficient human MDA-MB-468 cells; assay type: functional
[6] = Half life in CD mouse at 0.3 mg/kg, iv; assay type: ADME, organism-based; parameters: dose 0.3 mg/kg, route intravenous; conditions: in vivo
[7] = Volume of distribution at steady state in CD mouse at 0.3 mg/kg, iv; assay type: ADME, organism-based; parameters: dose 0.3 mg/kg, route intravenous; conditions: in vivo, read-out: Vdss
[8] = Clearance in CD mouse at 0.3 mg/kg, iv; assay type: ADME, organism-based; parameters: dose 0.3 mg/kg, route intravenous; conditions: in vivo
Mus musculus [9] = assay: Dose normalized AUC in CD mouse at 100 mg/kg, po; assay type: ADME, organism-based; parameters: dose 100 mg/kg, route oral; conditions: in vivo
[10] = Oral bioavailability in CD mouse at 100 mg/kg; assay type: ADME, organism-based; conditions: in vivo
Mus musculus [11] = assay: Inhibition of PI3K beta in human PTEN-deficient PC3 cells xenografted in nude mouse assessed as inhibition of AKT Ser473 phosphorylation at 100 and 300 mg/kg; assay type: functional, organism-based; parameters: dose 300 mg/kg; conditions: PC-3, TDE = time-dependent effect
Mus musculus [12] = assay: Inhibition of PI3K beta in human PTEN-deficient PC3 cells xenografted in nude mouse assessed as inhibition of AKT Ser473 phosphorylation at 100 mg/kg at 1 hr; assay type: functional; conditions: PC-3, 1 h
Mus musculus [13] = assay: Inhibition of PI3K beta in human PTEN-deficient PC3 cells xenografted in nude mouse assessed as inhibition of AKT Ser473 phosphorylation at 100 mg/kg at 2 hrs; assay type: functional; conditions: PC-3, 2 h
Mus musculus [14] = assay: Inhibition of PI3K beta in human PTEN-deficient PC3 cells xenografted in nude mouse assessed as inhibition of AKT Ser473 phosphorylation at 100 mg/kg at 4 hrs; assay type: functional; conditions: PC-3, 4 h
Mus musculus [15] = assay: Inhibition of PI3K beta in human PTEN-deficient PC3 cells xenografted in nude mouse assessed as inhibition of AKT Ser473 phosphorylation at 100 mg/kg at 6 hrs; assay type: functional; conditions: PC-3, 6 h
Mus musculus [16] = assay: Inhibition of PI3K beta in human PTEN-deficient PC3 cells xenografted in nude mouse assessed as inhibition of AKT Ser473 phosphorylation at 100 mg/kg at 8 hrs; assay type: functional; conditions: PC-3, 8 h
Mus musculus [17] = assay: Inhibition of PI3K beta in human PTEN-deficient PC3 cells xenografted in nude mouse assessed as inhibition of AKT Ser473 phosphorylation at 100 mg/kg at 10 hrs; assay type: functional; conditions: PC-3, 10 h
Mus musculus [18] = assay: Inhibition of PI3K beta in human PTEN-deficient PC3 cells xenografted in nude mouse assessed as inhibition of AKT Ser473 phosphorylation at 100 mg/kg at 24 hrs; assay type: functional; conditions: PC-3, 24 h
Mus musculus [19] = assay: Inhibition of PI3K beta in human PTEN-deficient PC3 cells xenografted in nude mouse assessed as inhibition of AKT Ser473 phosphorylation at 300 mg/kg at 1 hr; assay type: functional; conditions: PC-3, 1 h
Mus musculus [20] = assay: Inhibition of PI3K beta in human PTEN-deficient PC3 cells xenografted in nude mouse assessed as inhibition of AKT Ser473 phosphorylation at 300 mg/kg at 2 hrs; assay type: functional; conditions: PC-3, 2 h
Mus musculus [21] = assay: Inhibition of PI3K beta in human PTEN-deficient PC3 cells xenografted in nude mouse assessed as inhibition of AKT Ser473 phosphorylation at 300 mg/kg at 4 hrs; assay type: functional; conditions: PC-3, 4 h
Mus musculus [22] = assay: Inhibition of PI3K beta in human PTEN-deficient PC3 cells xenografted in nude mouse assessed as inhibition of AKT Ser473 phosphorylation at 300 mg/kg at 6 hrs; assay type: functional; conditions: PC-3, 6 h
Mus musculus [23] = assay: Inhibition of PI3K beta in human PTEN-deficient PC3 cells xenografted in nude mouse assessed as inhibition of AKT Ser473 phosphorylation at 300 mg/kg at 8 hrs; assay type: functional; conditions: PC-3, 8 h
Mus musculus [24] = assay: Inhibition of PI3K beta in human PTEN-deficient PC3 cells xenografted in nude mouse assessed as inhibition of AKT Ser473 phosphorylation at 300 mg/kg at 10 hrs; assay type: functional; conditions: PC-3, 10 h
Mus musculus [25] = assay: Inhibition of PI3K beta in human PTEN-deficient PC3 cells xenografted in nude mouse assessed as inhibition of AKT Ser473 phosphorylation at 300 mg/kg at 24 hrs; assay type: functional; conditions: PC-3, 24 h
Blood = assay: Ratio of drug uptake in blood at 300 mg/kg to drug uptake in blood at 100 mg/kg in nude mouse bearing PC3 cells; assay type: functional, PC-3
Nucleic Acid = assay: Ratio of drug uptake in tumor at 300 mg/kg to drug uptake in tumor at 100 mg/kg in nude mouse bearing PC3 cells; assay type: functional, organism-based; conditions: Neoplasm, PC-3
PC-3 = assay: Antitumor activity against human PC3 cells xenografted in nude mouse assessed as tumor growth inhibition at 100 and 300 mg/kg administered QD for 21 days relative to vehicle-treated control; assay type: functional, organism-based; parameters: dose 300 mg/kg
Mus musculus [26] = assay: Toxicity in nude mouse xenografted with human PC3 cells assessed as body weight loss at 100 and 300 mg/kg administered QD for 21 days; assay type: organism-based, PC-3; parameters: dose 300 mg/kg; conditions: in vivo, 504 h

T1 sequence (P42338 whole entry, canonical isoform): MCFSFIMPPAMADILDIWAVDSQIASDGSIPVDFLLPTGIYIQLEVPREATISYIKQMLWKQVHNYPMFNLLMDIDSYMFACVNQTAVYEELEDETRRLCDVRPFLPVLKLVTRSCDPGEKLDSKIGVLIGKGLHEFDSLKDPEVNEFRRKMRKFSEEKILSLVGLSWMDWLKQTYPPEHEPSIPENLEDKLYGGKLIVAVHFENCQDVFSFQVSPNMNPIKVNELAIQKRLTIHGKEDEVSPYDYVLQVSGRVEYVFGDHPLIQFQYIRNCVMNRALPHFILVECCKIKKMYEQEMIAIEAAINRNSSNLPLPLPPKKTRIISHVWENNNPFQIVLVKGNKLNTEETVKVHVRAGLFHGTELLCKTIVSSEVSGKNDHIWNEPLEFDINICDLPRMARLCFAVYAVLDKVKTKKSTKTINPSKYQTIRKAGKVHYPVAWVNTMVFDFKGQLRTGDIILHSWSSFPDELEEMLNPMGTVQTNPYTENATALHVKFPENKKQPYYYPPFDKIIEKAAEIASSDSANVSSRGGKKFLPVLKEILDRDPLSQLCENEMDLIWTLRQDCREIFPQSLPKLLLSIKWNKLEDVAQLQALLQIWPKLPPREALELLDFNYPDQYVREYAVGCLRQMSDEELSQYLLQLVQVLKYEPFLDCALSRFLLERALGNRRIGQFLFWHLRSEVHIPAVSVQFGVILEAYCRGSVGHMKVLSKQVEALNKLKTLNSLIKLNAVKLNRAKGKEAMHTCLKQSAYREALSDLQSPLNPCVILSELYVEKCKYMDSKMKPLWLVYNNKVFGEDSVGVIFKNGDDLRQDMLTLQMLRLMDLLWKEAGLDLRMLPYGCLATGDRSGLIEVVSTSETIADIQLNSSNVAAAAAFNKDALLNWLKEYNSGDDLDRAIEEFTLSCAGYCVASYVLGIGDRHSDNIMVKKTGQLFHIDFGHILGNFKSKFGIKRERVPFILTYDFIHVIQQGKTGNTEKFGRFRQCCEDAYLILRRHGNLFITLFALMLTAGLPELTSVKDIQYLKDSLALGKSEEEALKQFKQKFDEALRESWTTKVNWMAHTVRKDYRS
Chain of Phosphatidylinositol 4,5-bisphosphate 3-kinase catalytic subunit alpha isoform (P42336 whole entry, canonical isoform): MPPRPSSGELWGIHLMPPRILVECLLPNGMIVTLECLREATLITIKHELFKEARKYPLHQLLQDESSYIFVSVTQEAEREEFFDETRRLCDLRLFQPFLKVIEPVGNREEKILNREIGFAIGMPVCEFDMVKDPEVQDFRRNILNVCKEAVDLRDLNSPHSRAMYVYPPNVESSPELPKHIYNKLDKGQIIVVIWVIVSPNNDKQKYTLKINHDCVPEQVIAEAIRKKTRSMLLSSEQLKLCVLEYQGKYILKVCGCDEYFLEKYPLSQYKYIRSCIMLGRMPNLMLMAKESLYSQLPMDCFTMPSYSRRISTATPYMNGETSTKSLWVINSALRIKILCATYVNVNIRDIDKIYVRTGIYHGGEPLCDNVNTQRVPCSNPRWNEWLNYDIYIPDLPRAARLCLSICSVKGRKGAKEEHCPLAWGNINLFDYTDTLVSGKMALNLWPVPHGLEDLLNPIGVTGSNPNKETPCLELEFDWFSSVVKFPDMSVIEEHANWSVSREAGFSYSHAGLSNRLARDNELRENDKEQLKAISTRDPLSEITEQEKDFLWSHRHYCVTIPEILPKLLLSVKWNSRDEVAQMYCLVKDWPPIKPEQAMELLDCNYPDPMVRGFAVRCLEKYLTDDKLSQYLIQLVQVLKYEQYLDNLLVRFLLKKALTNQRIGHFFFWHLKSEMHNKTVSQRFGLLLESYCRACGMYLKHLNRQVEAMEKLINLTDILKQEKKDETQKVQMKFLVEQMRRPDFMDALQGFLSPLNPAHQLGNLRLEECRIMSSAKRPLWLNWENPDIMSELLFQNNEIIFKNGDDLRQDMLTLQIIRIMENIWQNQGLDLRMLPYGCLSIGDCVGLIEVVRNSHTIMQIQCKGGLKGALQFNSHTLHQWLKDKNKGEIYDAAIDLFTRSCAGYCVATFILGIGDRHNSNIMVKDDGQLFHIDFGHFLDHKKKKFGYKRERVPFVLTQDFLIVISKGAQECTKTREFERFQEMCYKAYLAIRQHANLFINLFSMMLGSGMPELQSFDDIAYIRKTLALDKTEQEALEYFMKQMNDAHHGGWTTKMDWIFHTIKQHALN
Chain of Phosphatidylinositol 4,5-bisphosphate 3-kinase catalytic subunit gamma isoform (P48736 whole entry, canonical isoform): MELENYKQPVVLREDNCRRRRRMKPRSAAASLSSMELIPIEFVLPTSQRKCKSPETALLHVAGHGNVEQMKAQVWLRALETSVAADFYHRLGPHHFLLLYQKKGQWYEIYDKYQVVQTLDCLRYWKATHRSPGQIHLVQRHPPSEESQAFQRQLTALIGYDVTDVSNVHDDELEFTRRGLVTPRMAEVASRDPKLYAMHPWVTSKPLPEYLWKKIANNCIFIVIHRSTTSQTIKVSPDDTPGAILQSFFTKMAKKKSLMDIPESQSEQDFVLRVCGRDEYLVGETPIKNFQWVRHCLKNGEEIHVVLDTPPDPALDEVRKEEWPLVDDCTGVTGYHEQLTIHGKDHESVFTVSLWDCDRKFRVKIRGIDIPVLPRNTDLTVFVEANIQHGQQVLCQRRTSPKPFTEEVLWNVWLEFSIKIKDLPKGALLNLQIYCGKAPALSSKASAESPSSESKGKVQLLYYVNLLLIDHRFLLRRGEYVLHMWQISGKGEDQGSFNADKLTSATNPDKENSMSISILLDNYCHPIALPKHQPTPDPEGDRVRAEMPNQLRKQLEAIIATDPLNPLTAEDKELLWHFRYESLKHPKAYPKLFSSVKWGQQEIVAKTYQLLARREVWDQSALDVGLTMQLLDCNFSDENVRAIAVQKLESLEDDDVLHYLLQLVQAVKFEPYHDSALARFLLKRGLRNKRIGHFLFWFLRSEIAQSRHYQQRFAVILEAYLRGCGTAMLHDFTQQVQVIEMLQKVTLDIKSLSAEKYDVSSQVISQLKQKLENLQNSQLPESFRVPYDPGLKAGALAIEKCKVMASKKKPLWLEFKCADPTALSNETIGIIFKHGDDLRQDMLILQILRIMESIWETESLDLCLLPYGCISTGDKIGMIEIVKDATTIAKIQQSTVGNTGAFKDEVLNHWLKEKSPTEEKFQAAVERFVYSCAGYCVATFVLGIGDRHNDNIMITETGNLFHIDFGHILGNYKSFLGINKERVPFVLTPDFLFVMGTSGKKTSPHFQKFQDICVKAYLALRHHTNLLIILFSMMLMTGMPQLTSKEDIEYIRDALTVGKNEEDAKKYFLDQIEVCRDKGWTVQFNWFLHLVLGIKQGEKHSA

## Cc1c(Cn2c(C)nc(=O)c3sc(N4CCOCC4)nc32)cccc1C(F)(F)F
[1]
  IC50: 2500 nM
[2]
  IC50: 0.6 nM
[3]
  IC50: 20 nM
[4]
  IC50: 790 nM
[5]
  EC50: 24 nM
MDA-MB-468
  GI50: 103 nM
[6]
  half-life: 1.2 h
[7]
  Vd: 2.8 L/kg
[8]
  clearance: 29.6 mL/min/kg
Mus musculus [9]
  AUC/dose: 278 ng/(hr.mL.mg.kg)
[10]
  bioavailability: 49%
Mus musculus [11]
  inhibition: tde
Mus musculus [12]
  inhibition in vivo at 100 mg/kg: 63%
Mus musculus [13]
  inhibition in vivo at 100 mg/kg: 53%
Mus musculus [14]
  inhibition in vivo at 100 mg/kg: 58%
Mus musculus [15]
  inhibition in vivo at 100 mg/kg: 64%
Mus musculus [16]
  inhibition in vivo at 100 mg/kg: 46%
Mus musculus [17]
  inhibition in vivo at 100 mg/kg: 33%
Mus musculus [18]
  inhibition in vivo at 100 mg/kg: -17%
Mus musculus [19]
  inhibition in vivo at 300 mg/kg: 68%
Mus musculus [20]
  inhibition in vivo at 300 mg/kg: 72%
Mus musculus [21]
  inhibition in vivo at 300 mg/kg: 63%
Mus musculus [22]
  inhibition in vivo at 300 mg/kg: 64%
Mus musculus [23]
  inhibition in vivo at 300 mg/kg: 48%
Mus musculus [24]
  inhibition in vivo at 300 mg/kg: 24%
Mus musculus [25]
  inhibition in vivo at 300 mg/kg: -1%
Blood
  Ratio: 1.2
Nucleic Acid
  Ratio: 1.2
PC-3
  TGI: Active
Mus musculus [26]
  Activity: Non-toxic
